Measured values as given in EP1410020B1, “TEST SYSTEM AND METHOD SUITABLE FOR SELECTING TEST MATERIALS AND FORMULATIONS” (PHARES PHARMACEUTICAL RESEARCH N.V., priority 2001, dated 2003).

Assay: Transmembrane screen (TS) for membrane affinity: drug solution added to membrane lipid Test system in 96 well plate, turbidity assessed visually or at 690 nm
Format: physicochemical
Conditions: higher turbidity with VP 805 than VP200 at 10:1 or lower lipid to drug ratios

Clc1ccccc1C(c1ccccc1)(c1ccccc1)n1ccnc1 [Clotrimazole]
relative affinity for VP 200 versus VP 805 (turbidity): higher affinity for VP 200 than VP 805
